For this assay, the target named is T1, EHMT2 (Homo sapiens, UniProt Q96KQ7).
T1 construct: host or cells: MDA-MB-231
T1 sequence (Q96KQ7 1-1210): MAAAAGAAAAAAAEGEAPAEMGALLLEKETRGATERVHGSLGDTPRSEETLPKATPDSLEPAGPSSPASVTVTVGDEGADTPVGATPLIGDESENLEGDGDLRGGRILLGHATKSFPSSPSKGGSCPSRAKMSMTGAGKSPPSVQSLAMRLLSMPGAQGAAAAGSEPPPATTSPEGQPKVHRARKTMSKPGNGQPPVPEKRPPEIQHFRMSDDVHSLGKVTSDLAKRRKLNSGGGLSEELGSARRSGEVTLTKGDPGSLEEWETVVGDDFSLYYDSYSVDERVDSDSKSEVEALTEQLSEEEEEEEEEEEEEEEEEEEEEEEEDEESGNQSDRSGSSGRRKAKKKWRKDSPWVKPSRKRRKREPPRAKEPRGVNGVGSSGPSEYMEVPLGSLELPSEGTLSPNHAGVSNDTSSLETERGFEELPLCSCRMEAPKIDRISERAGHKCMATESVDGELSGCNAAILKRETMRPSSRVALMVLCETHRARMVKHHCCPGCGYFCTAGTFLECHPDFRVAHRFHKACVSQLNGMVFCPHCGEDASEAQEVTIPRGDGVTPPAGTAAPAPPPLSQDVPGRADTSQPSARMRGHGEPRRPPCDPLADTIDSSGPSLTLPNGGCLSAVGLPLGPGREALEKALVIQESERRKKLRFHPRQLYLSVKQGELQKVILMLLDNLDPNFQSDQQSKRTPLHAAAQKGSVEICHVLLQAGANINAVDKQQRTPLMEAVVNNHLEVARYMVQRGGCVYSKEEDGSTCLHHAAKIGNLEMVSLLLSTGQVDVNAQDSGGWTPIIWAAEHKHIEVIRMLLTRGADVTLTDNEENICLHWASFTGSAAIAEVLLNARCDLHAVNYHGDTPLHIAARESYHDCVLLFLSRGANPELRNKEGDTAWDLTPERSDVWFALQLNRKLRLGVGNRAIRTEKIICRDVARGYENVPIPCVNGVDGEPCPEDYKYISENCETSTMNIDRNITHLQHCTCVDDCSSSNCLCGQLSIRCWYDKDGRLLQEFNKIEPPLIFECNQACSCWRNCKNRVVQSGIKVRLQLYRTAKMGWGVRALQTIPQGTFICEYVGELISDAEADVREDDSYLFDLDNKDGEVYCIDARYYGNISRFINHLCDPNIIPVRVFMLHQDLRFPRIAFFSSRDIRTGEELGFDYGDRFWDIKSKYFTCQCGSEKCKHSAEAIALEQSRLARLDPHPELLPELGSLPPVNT
Nature of the assay: MDA-MB-231 H3K9me2 in-cell Western assay (EHMT2 ICW). It is filed as cell-based. The following applies: Table III; MDA-MB-231 H3K9me2 in-cell Western; read-out: EHMT2 ICW (IC50 μM). In outline:
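IC50 values came from a variable-slope four-parameter fit on triplicate wells, using % inhibition from the 800/700 nm infrared signal ratio (anti-H3K9me2 versus DRAQ5 DNA stain). Before fixation and immunostaining, MDA-MB-231 cells, 3,000 per well, were exposed to compound for 48 h at 37 °C.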

A word on the IC50: it is the concentration at which inhibition is half-maximal.

Take `CNc1cc(C2CC2)nc(Nc2ccc(OC)c(OCCCN3CCCC3)c2)n1` [Compound 320, 6-cyclopropyl-N^2-(4-methoxy-3-(3-(pyrrolidin-1-yl)propoxy)phenyl)-N^4-methylpyrimidine-2,4-diamine]: the IC50 lay within 0.1 to 1 µM.
The same measure for `CNc1cc(C)nc(Nc2ccc(OC)c(OCC3CCN(CC4CC4)CC3)c2)n1` [Compound 436, N^2-(3-((1-(cyclopropylmethyl)piperidin-4-yl)methoxy)-4-methoxyphenyl)-N^4,6-dimethylpyrimidine-2,4-diamine]: greater than 10 µM; for `CNc1cc(C)nc(Nc2cc(OCCCN3CCCC3)c(OC)cn2)n1` [Compound 303, N^2-(5-methoxy-4-(3-(pyrrolidin-1-yl)propoxy)pyridin-2-yl)-N^4,6-dimethylpyrimidine-2,4-diamine]: 1 to 10 µM; for `CCOc1ccc(Nc2nccc(NC)n2)cc1OCC1CCN(C)C1` (centres unmarked) [Compound 431]: greater than 10 µM.
The same measure for `CNc1cc(C)nc(Nc2cc(OCCCN3CCCC3)c(OC)cc2F)n1` [Compound 302, N^2-(2-fluoro-4-methoxy-5-(3-(pyrrolidin-1-yl)propoxy)phenyl)-N^4,6-dimethylpyrimidine-2,4-diamine]: greater than 10 µM; for `COc1cnc(Nc2nc(C)cc3[nH]ccc23)cc1OCCCN1CCCC1` [Compound 310]: greater than 10 µM; for `CNc1cc(C)nc(Nc2ccc(OC)c(OCC3CCCO3)c2)n1` (centres unmarked) [Compound 452, N^2-(4-methoxy-3-((tetrahydrofuran-2-yl)methoxy)phenyl)-N^4,6-dimethylpyrimidine-2,4-diamine]: greater than 10 µM.
The same measure for `CNc1ccnc(Nc2ccc(OC)c(OC[C@H]3CN(C)C[C@@H]3C)c2)n1` (single isomer, unassigned) [Compound 439]: 0.1 to 1 µM.
Consider `CNc1cc(COC)nc(Nc2ccc(OC)c(OCCCN3CCCC3)c2)n1` [Compound 441, N^2-(4-methoxy-3-(3-(pyrrolidin-1-yl)propoxy)phenyl)-6-(methoxymethyl)-N^4-methylpyrimidine-2,4-diamine], for which the IC50 lay within 1 to 10 µM.
The same measure for `CNc1cc(C)nc(Nc2cc(F)c(OC)c(OCCCN3CCCC3)c2)n1` [Compound 301, N2-(3-fluoro-4-methoxy-5-(3-(pyrrolidin-1-yl)propoxy)phenyl)-N4,6-dimethylpyrimidine-2,4-diamine]: greater than 10 µM.
Consider `CNc1ccnc(Nc2ccc(OC)c(OCCCN3CCC4(COC4)C3)c2)n1` [Compound 284], for which the IC50 was greater than 10 µM.
The same measure for `CNc1cc(C)nc(Nc2ccc(OC)c(OC3CCN(CC4CC4)CC3)c2)n1` [Compound 443]: greater than 10 µM.
The same measure for `CNc1ccnc(Nc2cccc(N3CC(N)CC3=O)c2)n1` (centres unmarked) [Compound 296]: greater than 10 µM; for `CNc1cc(Nc2ccc(OC)c(OCCCN3CCCC3)c2)cc(C(F)(F)F)n1` [Compound 273]: greater than 10 µM; for `CNc1cc(Nc2cc(OCCCN3CCCC3)c(OC)cn2)cc(C)n1` [Compound 308, N^4-(5-methoxy-4-(3-(pyrrolidin-1-yl)propoxy)pyridin-2-yl)-N^2,6-dimethylpyridine-2,4-diamine]: 1 to 10 µM.
The same measure for `CNc1ccnc(Nc2cc(OCCCN3CCCC3)c(OC)cn2)c1` [Compound 305, N^2-(5-methoxy-4-(3-(pyrrolidin-1-yl)propoxy)pyridin-2-yl)-N^4-methylpyridine-2,4-diamine]: 0.1 to 1 µM.
On to `CNc1cc(C)nc(Nc2ccc(OC)c(OCC3CN(C)C3)c2)n1` [Compound 442, N^2-(4-methoxy-3-((1-methylazetidin-3-yl)methoxy)phenyl)-N^4,6-dimethylpyrimidine-2,4-diamine], for which the IC50 is 0.1 to 1 µM.
The same measure for `CNc1ccnc(Nc2ccc(OC)c(OCCCN3CCCC3C)c2)n1` (centres unmarked) [Compound 290, N^2-(4-methoxy-3-(3-(2-methylpyrrolidin-1-yl)propoxy)phenyl)-N^4-methylpyrimidine-2,4-diamine]: 1 to 10 µM; for `CNc1cc(C)nc(Nc2ccc(OC)c(O[C@H]3C[C@@H](N(C)C)C3)c2)n1` (single isomer, unassigned) [Compound 317, N^2-(3-((1s,3s)-3-(dimethylamino)cyclobutoxy)-4-methoxyphenyl)-N^4,6-dimethylpyrimidine-2,4-diamine]: 1 to 10 µM; for `CNc1ccnc(Nc2ccc(OC)c(OCCCN3CCC(OC)C3)c2)n1` (centres unmarked) [Compound 283, N^2-(4-methoxy-3-(3-(3-methoxypyrrolidin-1-yl)propoxy)phenyl)-N^4-methylpyrimidine-2,4-diamine]: 0.1 to 1 µM.
The same measure for `CNc1ccnc(Nc2cccc(OCC(F)CN3CCCC3)c2)n1` (centres unmarked) [Compound 276, N^2-(3-(2-fluoro-3-(pyrrolidin-1-yl)propoxy)phenyl)-N^4-methylpyrimidine-2,4-diamine]: greater than 10 µM.
The same measure for `CNc1cc(C)nc(Nc2ccc(OC)c(OCC3CCN(C4COC4)C3)c2)n1` (centres unmarked) [Compound 449, N^2-(4-methoxy-3-((1-(oxetan-3-yl)pyrrolidin-3-yl)methoxy)phenyl)-N^4,6-dimethylpyrimidine-2,4-diamine]: 0.1 to 1 µM; for `CCc1nc(Nc2ccc(OC)c(OCCCN3CCCC3)c2)nc(NC)c1F` [Compound 319, 6-ethyl-5-fluoro-N^2-(4-methoxy-3-(3-(pyrrolidin-1-yl)propoxy)phenyl)-N^4-methylpyrimidine-2,4-diamine]: 1 to 10 µM.
As for `COc1ccc(Nc2nc(C)cc(O)n2)cc1OCCCN1CCCC1` [Compound 447, 2-((4-methoxy-3-(3-(pyrrolidin-1-yl)propoxy)phenyl)amino)-6-methylpyrimidin-4-ol], the IC50 is greater than 10 µM.
The same measure for `CNc1cc(Nc2cc(OCCCN3CCCC3)c(OC)cn2)nc(C)c1F` [Compound 309, 5-fluoro-N^2-(5-methoxy-4-(3-(pyrrolidin-1-yl)propoxy)pyridin-2-yl)-N^4,6-dimethylpyridine-2,4-diamine]: 0.1 to 1 µM.
Turning to `CNc1cc(CC(F)(F)F)nc(Nc2ccc(OC)c(OCCCN3CCCC3)c2)n1` [Compound 428, N^2-(4-methoxy-3-(3-(pyrrolidin-1-yl)propoxy)phenyl)-N^4-methyl-6-(2,2,2-trifluoroethyl)pyrimidine-2,4-diamine], the IC50 was 1 to 10 µM.
On to `CNc1ccnc(Nc2ccc(OC)c(OCCCN3CCC(C(F)(F)F)C3)c2)n1` (centres unmarked) [Compound 285, N^2-(4-methoxy-3-(3-(3-(trifluoromethyl)pyrrolidin-1-yl)propoxy)phenyl)-N^4-methylpyrimidine-2,4-diamine], for which the IC50 is greater than 10 µM.
The same measure for `CNc1ccnc(Nc2ccc(OC)c(OC[C@H](O)CN3CCCC3)c2)n1` [Compound 299, (R)-1-(2-methoxy-5-((4-(methylamino)pyrimidin-2-yl)amino)phenoxy)-3-(pyrrolidin-1-yl)propan-2-ol]: 0.1 to 1 µM; for `CNc1ccnc(Nc2ccc(OC)c(OC[C@@H](O)CN3CCCC3)c2)n1` [Compound 300, (S)-1-(2-methoxy-5-((4-(methylamino)pyrimidin-2-yl)amino)phenoxy)-3-(pyrrolidin-1-yl)propan-2-ol]: 0.1 to 1 µM; for `CNc1cc(Nc2cccc(COCCN3CCCC3)n2)ccn1` [Compound 268, N^2-methyl-N^4-(6-((2-(pyrrolidin-1-yl)ethoxy)methyl)pyridin-2-yl)pyridine-2,4-diamine]: greater than 10 µM.
The same measure for `CNc1ccnc(Nc2cccc(N3CCC(N(C)C)C3=O)c2)n1` (centres unmarked) [Compound 275]: greater than 10 µM.
With `CNc1cc(Nc2ccc(OC)c(OCCCN3CCCC3)c2)ncc1F` [Compound 272, 5-fluoro-N^2-(4-methoxy-3-(3-(pyrrolidin-1-yl)propoxy)phenyl)-N^4-methylpyridine-2,4-diamine] the figure was 1 to 10 µM; with `COc1ccc(Nc2cc(C)nc(O)n2)cc1OCCCN1CCCC1` [Compound 448, 4-((4-methoxy-3-(3-(pyrrolidin-1-yl)propoxy)phenyl)amino)-6-methylpyrimidin-2-ol], greater than 10 µM.
For `CNc1ccnc(Nc2cccc(N3CCC(N)C3=O)c2)n1` (centres unmarked) [Compound 274], the IC50 is greater than 10 µM.
With `CNc1ccnc(Nc2ccc(OC)c(OCCC3CCCN3C)c2)n1` (centres unmarked) [Compound 288, N^2-(4-methoxy-3-(2-(1-methylpyrrolidin-2-yl)ethoxy)phenyl)-N^4-methylpyrimidine-2,4-diamine] the figure was 1 to 10 µM.
